Results on one molecule are retold here after US11110060B2, “Compositions and methods for delivering pharmaceutical agents” (Arizona Board of Regents on Behalf of the University of …, priority 2017, dated 2021).

For data set [1], the system named is human buccal cell line (T146). As to the kind of experiment: In vitro viability of human buccal cell line (T146), dose-response for safety/toxicity. The class given is cell-based. Particulars: dose-response of sodium suramin, FIG. 8. From the text: FIG. 8: In vitro viability of human buccal cell line (T146): dose-response of sodium suramin for safety/toxicity.
Suramin alone is amorphous or liquid-crystalline (FIGS. 5-7) and is safe in a human cell line (FIG. 8).

Data set [2] relates to chronic wounds in diabetic and healthy mice. The data set can be described thus: Wound healing in chronic wounds in diabetic (ob/ob) and healthy mice. The class given is in vivo. The method, then: FIG. 25: suramin treatment results in increased granulation tissue and wound contraction. A) control. B) 0.15 μg surmain-treated; C) 1.5 μg surmain-treated; and d) 15 μg surmain-treated.

Setting [3] is: mice, 0.15, 1.5 and 15 μg suramin-treated vs control, FIG. 25.

For `Cc1ccc(C(=O)Nc2ccc(S(=O)(=O)O)c3cc(S(=O)(=O)O)cc(S(=O)(=O)O)c23)cc1NC(=O)c1cccc(NC(=O)Nc2cccc(C(=O)Nc3cc(C(=O)Nc4ccc(S(=O)(=O)O)c5cc(S(=O)(=O)O)cc(S(=O)(=O)O)c45)ccc3C)c2)c1` [suramin], the “safety in a human cell line (in vitro viability)” value in data set [1] is on record as “safe”. In addition, in data set [2] (setting [3]), the granulation tissue entry was “increased” and the wound contraction entry is on record as “increased”. In addition, the “wound healing relative to controls” value in data set [2] (ob/ob mice, suramin treatment at different concentrations, FIG. 24) is “accelerated wound healing”.
